# Earlier results as cited in patent publication US20140079639A1, “METHODS AND COMPOSITIONS FOR IDENTIFYING, PRODUCING AND USING PLANT-DERIVED PRODUCTS FOR MODULATING CELL FUNCTION AND AGING” (LIFESPAN EXTENSION, LLC, priority 2009, published 2014).
# How the values were obtained:
# [1] = when absorbed into the body
# [2] = test system: fibroblast cells; conditions: cells treated in culture
# [3] = oxidation of lipids due to e.g. UV radiation or free radical damage
smiles,measurement,setting,value
"O=C(O)/C=C/c1ccc(O)c(O)c1 [Caffeic Acid, (E)-3-(3,4-dihydroxyphenyl)-2-propenoic acid]",solubility,,soluble in water and alcohol
"COC1=C(OC)C(=O)C(C/C=C(\C)CC/C=C(\C)CC/C=C(\C)CC/C=C(\C)CC/C=C(\C)CC/C=C(\C)CC/C=C(\C)CC/C=C(\C)CC/C=C(\C)CCC=C(C)C)=C(C)C1=O [ubiquinone, Ubiquinone]",conversion to the active antioxidant form ubiquinol,[1],90%
NCCC(=O)N[C@@H](Cc1cnc[nH]1)C(=O)O [Carnosine],extension of lifespan of fibroblast cells past the Hayflick limit of non-treated cells,[2],up to 10 divisions
"COC1=C(OC)C(=O)C(CCCCCCCCCCO)=C(C)C1=O [idebenone, 6-(10-hydroxydecyl)-2,3-dimethoxy-5-methyl-1,4-benzoquin-one]",reduction of lipid hydroperoxides among the tested antioxidants,[3],highest reduction
